Experimental data published in publication PMC8000724, “Trans-Epithelial Transport, Metabolism, and Biological Activity Assessment of the Multi-Target Lupin Peptide [sequence] (P5) and Its Metabolite [sequence] (P5-Met)” (Nutrients, 2021).

Legend:
SREBP-2 = test: Western blot, SREBP-2 protein level in HepG2 cells; assay type: cell-based, human; conditions: HepG2, 50 µM, 24 h, mean ± SD
Protocol: The HepG2 cell line was bought from ATCC (HB-8065, ATCC from LGC Standards, Milan, Italy) and was cultured in DMEM high glucose with stable L-glutamine, supplemented with 10% FBS, 100 U/mL penicillin, 100 µg/mL streptomycin (complete growth medium) with incubation at 37 °C under 5% CO2 atmosphere.
Immunoblotting experiments were performed using optimized protocol. A total of 1.5 × 10^5 HepG2 cells/well (24-well plate) were treated with 50 μM of P5 and P5-met for 24 h. After each treatment, the supernatants were collected and stored at −20°C; cells were scraped in 40 µL ice-cold lysis buffer (RIPA buffer + inhibitor cocktail + 1:100 PMSF + 1:100 Na-orthovanadate + 1:1000 β-mercaptoethanol) and transferred in ice-cold microcentrifuge tubes. […] Total proteins were quantified by the Bradford’s method and 50 μg of total proteins loaded on a pre-cast 7.5% Sodium Dodecyl Sulfate-Polyacrylamide (SDS-PAGE) gel at 130 V for 45 min. […] Target proteins, on milk or BSA blocked membrane, were detected by primary antibodies as follows: anti-SREBP-2, anti-LDLR, anti-HMGCoAR, anti-PCSK9, anti HNF1-α and anti-β-actin. Secondary antibodies conjugated with HRP and a chemiluminescent reagent were used to visualize target proteins and their signal was quantified using the Image Lab Software (Biorad, Hercules, CA, USA). […]

HepG2 cells = test: Fluorescent LDL uptake by HepG2 cells; assay type: cell-based, human; conditions: mean ± SD
Protocol: HepG2 cells (3 × 10^4/well) were seeded in 96-well plates and kept in complete growth medium for 2 days before treatment. The third day, cells were washed with PBS and then starved overnight (O/N) in DMEM without FBS and antibiotics. After starvation, they were treated with 4.0 μg/mL PCSK9 and 4.0 μg/mL PCSK9 + P5 and P5-met peptides (50.0 µM), and vehicle (H2O) for 2 h with at 37 °C under 5% CO2 atmosphere. At the end of the treatment, the culture medium was replaced with 50 μL/well LDL-DyLight™ 550 working solution (Cayman Chemical Company, Ann Arbor, MI, USA) prepared in DMEM without FBS and antibiotics. The cells were additionally incubated for 2 h at 37 °C and then the culture medium was aspirated and replaced with PBS (100 μL/well). The degree of LDL uptake was measured using the Synergy H1 fluorescent plate reader (Winooski, VT, USA) (excitation and emission wavelengths 540 and 570 nm, respectively). Fluorescent LDL-uptake was finally assessed following optimized protocol.

[1] = biological target: T1, HMGCoAR (catalytic domain) (Homo sapiens, UniProt P04035); test: HMGCoAR activity assay; assay type: biochemical; conditions: 10-500 µM peptide, 37 °C, NADPH absorbance 340 nm at 0 and 10 min
T1 construct: finally the HMGCoAR (catalytic domain) (2 µL); purchased Sigma-Aldrich
T1 sequence (P04035 340-888 limits assumed): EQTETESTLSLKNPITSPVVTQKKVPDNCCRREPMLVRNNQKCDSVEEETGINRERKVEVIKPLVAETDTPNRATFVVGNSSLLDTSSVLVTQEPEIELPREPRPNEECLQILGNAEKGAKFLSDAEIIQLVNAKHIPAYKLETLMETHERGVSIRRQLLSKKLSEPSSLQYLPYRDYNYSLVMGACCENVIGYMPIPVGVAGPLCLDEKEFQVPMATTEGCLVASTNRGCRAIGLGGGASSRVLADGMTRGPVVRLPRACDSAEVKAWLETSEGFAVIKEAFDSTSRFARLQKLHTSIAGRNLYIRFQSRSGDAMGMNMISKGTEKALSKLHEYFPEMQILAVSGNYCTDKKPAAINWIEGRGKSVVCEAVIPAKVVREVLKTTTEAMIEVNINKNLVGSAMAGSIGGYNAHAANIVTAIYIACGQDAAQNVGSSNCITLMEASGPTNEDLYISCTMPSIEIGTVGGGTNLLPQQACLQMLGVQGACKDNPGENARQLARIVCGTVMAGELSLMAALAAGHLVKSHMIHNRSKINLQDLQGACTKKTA
Protocol: The experiments were carried out following the manufacturer instructions and optimized protocol. The assay buffer, NADPH, substrate solution, and HMGCoAR were provided in the HMGCoAR Assay Kit (Sigma Aldrich SRL, Milan, Italy). The experiments were carried out following the manufacturer instructions at 37 °C. In particular, each reaction (200 µL) was prepared adding the reagents in the following order: 1× assay buffer, a 10–500 µM doses of P5 and P5-met or vehicle (C), the NADPH (4 µL), the substrate solution (12 µL), and finally the HMGCoAR (catalytic domain) (2 µL). Subsequently, the samples were mixed and the absorbance at 340 nm read by the microplate reader Synergy H1 (Winooski, VT, USA) at time 0 and 10 min. The HMGCoAR-dependent oxidation of NADPH and the inhibition properties of peptides were measured by absorbance reduction, which is directly proportional to enzyme activity.

Q: How did the “SREBP-2 protein level versus the control” value (SREBP-2) turn out when H-LPKHSDAD-OH [Peptide P5-met] was run?
A: The value was 130.4 ± 16.4%.

Q: What about the “Ability of HepG2 cells to absorb extracellular LDL versus the control” value (HepG2 cells; HepG2, 50 µM, fluorescent LDL-DyLight 550, without added PCSK9) of the same substance?
A: Its value is 181.2 ± 40.1%.

Q: What about the “LDL uptake by HepG2 cells restored, co-incubation with PCSK9” value (HepG2 cells; peptide 50 µM + PCSK9 4 µg/mL, 2 h, % of untreated cells) of the same substance?
A: The value was 104.1 ± 8.5%.

Q: And the IC50 [1]?
A: Its IC50 is 175 µM.
